Assay results as given in patent US20180186742A1, “PICOLINAMIDES AS FUNGICIDES” (Dow AgroSciences LLC, priority 2017, published 2018).
Like-named read-outs stand apart in the source and are kept apart here.

Key:
Puccinia triticina = assay: Wheat brown rust (PUCCRT), disease control on wheat seedlings; assay type: in vivo; conditions: for pest or weed control at 100 ppm: high volume application at 100 ppm; for pest or weed control at 121.5 g/ha: low volume application at 121.5 g/H
Method: Technical grades of materials were dissolved in acetone, which were then mixed with nine volumes of water containing 110 ppm Triton X-100. The fungicide solutions were applied onto wheat seedlings using an automated booth sprayer to run-off. All sprayed plants were allowed to air dry prior to further handling. All fungicides were evaluated using the aforementioned method for their activity vs. all target diseases, unless stated otherwise. Wheat leaf blotch and brown rust activity were also evaluated using track spray applications, in which case the fungicides were formulated as EC formulations, containing 0.1% Trycol 5941 in the spray solutions. Wheat plants (variety Yuma) were grown from seed in a greenhouse in 50% mineral soil/50% soil-less Metro mix until the first leaf was fully emerged, with 7-10 seedlings per pot. These plants were inoculated with an aqueous spore suspension of Puccinia triticina either prior to or after fungicide treatments. After inoculation the plants were kept in a dark dew room at 22° C. with 100% relative humidity overnight to permit spores to germinate and infect the leaf. The plants were then transferred to a greenhouse set at 24° C. for disease to develop. Fungicide formulation, application and disease assessment followed the procedures as described in the Example A.

Zymoseptoria tritici = assay: Leaf blotch of wheat (SEPTTR), disease control on wheat seedlings; assay type: in vivo; conditions: for pest or weed control at 100 ppm: high volume application at 100 ppm; for pest or weed control at 121.5 g/ha: low volume application at 121.5 g/H
Method: Technical grades of materials were dissolved in acetone, which were then mixed with nine volumes of water containing 110 ppm Triton X-100. The fungicide solutions were applied onto wheat seedlings using an automated booth sprayer to run-off. All sprayed plants were allowed to air dry prior to further handling. All fungicides were evaluated using the aforementioned method for their activity vs. all target diseases, unless stated otherwise. Wheat leaf blotch and brown rust activity were also evaluated using track spray applications, in which case the fungicides were formulated as EC formulations, containing 0.1% Trycol 5941 in the spray solutions. Wheat plants (variety Yuma) were grown from seed in a greenhouse in 50% mineral soil/50% soil-less Metro mix until the first leaf was fully emerged, with 7-10 seedlings per pot. These plants were inoculated with an aqueous spore suspension of Zymoseptoria tritici either prior to or after fungicide treatments. After inoculation the plants were kept in 100% relative humidity (one day in a dark dew chamber followed by two to three days in a lighted dew chamber at 20° C.) to permit spores to germinate and infect the leaf. The plants were then transferred to a greenhouse set at 20° C. for disease to develop. When disease symptoms were fully expressed on the 1st leaves of untreated plants, infection levels were assessed on a scale of 0 to 100 percent disease severity. Percent disease control was calculated using the ratio of disease severity on treated plants relative to untreated plants.

[1] = 24 h, 1 Day Protectant, read-out: PUCCRT disease control, 1DP, HV activity
[2] = 72 h, 3 Day Curative, read-out: PUCCRT disease control, 3DC, HV activity
[3] = 24 h, 1 Day Protectant, read-out: SEPTTR disease control, 1DP, HV activity
[4] = 72 h, 3 Day Curative, read-out: SEPTTR disease control, 3DC, HV activity
[5] = 24 h, 1 Day Protectant, wheat brown rust, read-out: PUCCRT 1DP disease control, LV activity
[6] = 72 h, 3 Day Curative, wheat brown rust, read-out: PUCCRT 3DC disease control, LV activity
[7] = 24 h, 1 Day Protectant, wheat leaf blotch, read-out: SEPTTR 1DP disease control, LV activity
[8] = 72 h, 3 Day Curative, wheat leaf blotch, read-out: SEPTTR 3DC disease control, LV activity
[9] = 24 h, 1 Day Protectant, read-out: PUCCRT disease control, 1DP, LV activity
[10] = 72 h, 3 Day Curative, read-out: PUCCRT disease control, 3DC, LV activity
[11] = 24 h, 1 Day Protectant, read-out: SEPTTR disease control, 1DP, LV activity
[12] = 72 h, 3 Day Curative, read-out: SEPTTR disease control, 3DC, LV activity

Compound	pest or weed control at 100 ppm (Puccinia triticina; [1]) [%]	pest or weed control at 100 ppm (Puccinia triticina; [2]) [%]	pest or weed control at 100 ppm (Zymoseptoria tritici; [3]) [%]	pest or weed control at 100 ppm (Zymoseptoria tritici; [4]) [%]	further results
CCC(C)[C@H](c1ccc(F)cc1OC)[C@H](C)OC(=O)[C@H](C)NC(=O)c1nccc(OC)c1O (stereo partly drawn) [Compound 141]	< 80	> 80	< 0	> 80	
CCC(C)[C@@H](c1ccccc1C)[C@H](C)OC(=O)[C@H](C)NC(=O)c1nccc(OC)c1OC(C)=O (stereo partly drawn) [Compound 384]					pest or weed control at 121.5 g/ha (Puccinia triticina; [5]): > 80%; pest or weed control at 121.5 g/ha (Puccinia triticina; [6]): > 80%; pest or weed control at 121.5 g/ha (Zymoseptoria tritici; [7]): > 80%; pest or weed control at 121.5 g/ha (Zymoseptoria tritici; [8]): > 80%
CCC(C)[C@@H](c1ccc(F)cc1C)[C@H](C)OC(=O)[C@H](C)NC(=O)c1nccc(OC)c1O (stereo partly drawn) [Compound 126]	> 80	< 80	> 80	> 80	
COc1ccnc(C(=O)N[C@@H](C)C(=O)O[C@@H](C)[C@H](c2c(F)cc(F)cc2F)C(C)C)c1OC(C)=O [Compound 388]					pest or weed control at 121.5 g/ha (Puccinia triticina; [5]): > 80%; pest or weed control at 121.5 g/ha (Puccinia triticina; [6]): > 80%; pest or weed control at 121.5 g/ha (Zymoseptoria tritici; [7]): > 80%; pest or weed control at 121.5 g/ha (Zymoseptoria tritici; [8]): > 80%
COc1ccnc(C(=O)N[C@@H](C)C(=O)O[C@@H](C)[C@H](c2ccccc2C)C(C)C)c1O [Compound 327]	> 80	> 80	< 80	> 80	
COc1cc(F)ccc1[C@H](C(C)C)[C@H](C)OC(=O)[C@H](C)NC(=O)c1nccc(OC)c1O [Compound 148]	< 80	> 80	< 0	< 80	
COc1ccnc(C(=O)N[C@@H](C)C(=O)O[C@@H](C)[C@H](c2ccc(F)cc2C)C(C)C)c1O [Compound 124]	> 80	> 80	> 80	> 80	
COc1ccnc(C(=O)N[C@@H](C)C(=O)O[C@@H](C)[C@@H](c2ccccc2)C2CCCC2)c1OCOC(C)=O [Compound 163]					pest or weed control at 121.5 g/ha (Puccinia triticina; [9]): > 80%; pest or weed control at 121.5 g/ha (Puccinia triticina; [10]): < 80%; pest or weed control at 121.5 g/ha (Zymoseptoria tritici; [11]): < 80%; pest or weed control at 121.5 g/ha (Zymoseptoria tritici; [12]): > 80%
COc1ccnc(C(=O)N[C@@H](C)C(=O)O[C@@H](C)[C@@H](c2ccc(F)cc2C)C2CCCC2)c1O [Compound 118]	> 80	< 80	< 80	< 80	
COc1ccnc(C(=O)N[C@@H](C)C(=O)O[C@@H](C)[C@H](c2ccc(OC(F)(F)F)cc2)C(C)C)c1O [Compound 335]	> 80	> 80	> 80	< 80	
CC[C@H](C)[C@H](NC(=O)c1nccc(OC)c1O)C(=O)O[C@@H](C)[C@H](c1ccc(F)cc1C)C(C)C [Compound 319]	< 80	< 80	< 80	< 80	
COc1ccnc(C(=O)N[C@@H](C)C(=O)O[C@@H](C)[C@H](c2ccc(F)cc2F)C(C)C)c1O [Compound 328]	> 80	> 80	> 80	> 80	
COc1ccnc(C(=O)N[C@@H](C)C(=O)O[C@@H](C)[C@H](c2ccccc2OC(C)C)C(C)C)c1O [Compound 337]	> 80	> 80	< 80	< 0	
COc1ccnc(C(=O)N[C@@H](C)C(=O)O[C@@H](C)[C@H](c2cccc(F)c2C)C(C)C)c1O [Compound 322]	> 80	> 80	< 80	< 80	
COc1ccnc(C(=O)N[C@@H](C)C(=O)O[C@@H](C)[C@H](c2ccc(Cl)cc2F)C(C)C)c1OC(C)=O [Compound 389]					pest or weed control at 121.5 g/ha (Puccinia triticina; [5]): > 80%; pest or weed control at 121.5 g/ha (Puccinia triticina; [6]): > 80%; pest or weed control at 121.5 g/ha (Zymoseptoria tritici; [7]): > 80%; pest or weed control at 121.5 g/ha (Zymoseptoria tritici; [8]): > 80%
COCCC(=O)Oc1c(OC)ccnc1C(=O)N[C@@H](C)C(=O)O[C@@H](C)[C@H](c1ccc(C)cc1)C(C)C [Compound 245]					pest or weed control at 121.5 g/ha (Puccinia triticina; [9]): > 80%; pest or weed control at 121.5 g/ha (Puccinia triticina; [10]): > 80%; pest or weed control at 121.5 g/ha (Zymoseptoria tritici; [11]): < 80%
CCC(C)[C@@H](c1ccccc1C)[C@H](C)OC(=O)[C@H](C)NC(=O)c1nccc(OC)c1OC(=O)C(C)C (stereo partly drawn) [Compound 386]					pest or weed control at 121.5 g/ha (Puccinia triticina; [5]): > 80%; pest or weed control at 121.5 g/ha (Puccinia triticina; [6]): > 80%; pest or weed control at 121.5 g/ha (Zymoseptoria tritici; [7]): < 80%; pest or weed control at 121.5 g/ha (Zymoseptoria tritici; [8]): > 80%
COc1ccnc(C(=O)N[C@@H](C)C(=O)O[C@H](C)[C@H](c2ccc(F)cc2C)C2CCCC2)c1O [Compound 128]	< 80	< 0	< 0	< 80	
COc1ccnc(C(=O)N[C@@H](C)C(=O)O[C@@H](C)[C@@H](c2ccc(C)cc2C)C2CCCCC2)c1O [Compound 133]	> 80	< 80	> 80	< 80	
COc1ccc([C@H](C(C)C)[C@H](C)OC(=O)[C@H](C)NC(=O)c2nccc(OC)c2OC(C)=O)cc1F [Compound 252]					pest or weed control at 121.5 g/ha (Puccinia triticina; [9]): > 80%; pest or weed control at 121.5 g/ha (Puccinia triticina; [10]): < 80%; pest or weed control at 121.5 g/ha (Zymoseptoria tritici; [11]): < 80%
CCC(CC)[C@@H](c1ccccc1C)[C@H](C)OC(=O)[C@H](C)NC(=O)c1nccc(OC)c1OC(C)=O [Compound 385]					pest or weed control at 121.5 g/ha (Puccinia triticina; [5]): > 80%; pest or weed control at 121.5 g/ha (Puccinia triticina; [6]): > 80%; pest or weed control at 121.5 g/ha (Zymoseptoria tritici; [7]): > 80%; pest or weed control at 121.5 g/ha (Zymoseptoria tritici; [8]): > 80%
COc1ccnc(C(=O)N[C@@H](C)C(=O)O[C@@H](C)[C@H](c2ccc(F)cc2)C(C)C)c1O [Compound 135]	< 80	> 80	< 80	> 80	
COc1ccnc(C(=O)N[C@@H](C)C(=O)O[C@@H](C)[C@H](c2c(F)cccc2Cl)C(C)C)c1O [Compound 343]	> 80	> 80	> 80	> 80	
COc1ccnc(C(=O)N[C@@H](C)C(=O)O[C@@H](C)[C@@H](c2ccccc2)C(C)C)c1OC(C)=O [Compound 160]					pest or weed control at 121.5 g/ha (Puccinia triticina; [9]): > 80%; pest or weed control at 121.5 g/ha (Puccinia triticina; [10]): < 80%; pest or weed control at 121.5 g/ha (Zymoseptoria tritici; [11]): < 80%; pest or weed control at 121.5 g/ha (Zymoseptoria tritici; [12]): > 80%
COc1ccnc(C(=S)N[C@@H](C)C(=O)OC(C)[C@H](c2ccccc2)C2CCCC2)c1OC(C)=O (stereo partly drawn) [Compound 176]					pest or weed control at 121.5 g/ha (Puccinia triticina; [9]): > 80%; pest or weed control at 121.5 g/ha (Puccinia triticina; [10]): < 80%; pest or weed control at 121.5 g/ha (Zymoseptoria tritici; [11]): > 80%; pest or weed control at 121.5 g/ha (Zymoseptoria tritici; [12]): > 80%
COc1ccnc(C(=O)N[C@@H](C)C(=O)O[C@@H](C)[C@H](c2ccc(F)c(C)c2)C(C)C)c1OC(C)=O [Compound 250]					pest or weed control at 121.5 g/ha (Puccinia triticina; [9]): > 80%; pest or weed control at 121.5 g/ha (Puccinia triticina; [10]): > 80%; pest or weed control at 121.5 g/ha (Zymoseptoria tritici; [11]): > 80%
COc1ccccc1[C@H](C(C)C)[C@H](C)OC(=O)[C@H](C)NC(=O)c1nccc(OC)c1OC(C)=O [Compound 261]					pest or weed control at 121.5 g/ha (Puccinia triticina; [9]): > 80%; pest or weed control at 121.5 g/ha (Puccinia triticina; [10]): < 80%; pest or weed control at 121.5 g/ha (Zymoseptoria tritici; [11]): < 80%; pest or weed control at 121.5 g/ha (Zymoseptoria tritici; [12]): < 80%
